Reference: patent publication US8680137B2, “Agents and methods for treating ischemic and other diseases” (Nono Inc., priority 2009, dated 2014)
Where two headings read alike, the source gives them in different places.

Legend:
[1] = system: SW13 adrenal carcinoma cells; assay: Cancer cell proliferation, SW13; assay type: cell-based; details: SW13, FIG. 79
Protocol: (§1) To determine the breadth of efficacy in cancers, we examined the efficacy of a range of TRPM7 inhibitors for their ability to inhibit cell proliferation in cancer cell lines. Representative figures are included as examples.
(§2) Cells (Table 1) were grown to 70% confluency, trypsinized, counted, and seeded in 96-well flat-bottom plates at a final concentration of 2.5×10^3-5.0×10^3 cells/well in growth media containing 5% FBS (Day 0). Other well sizes and cell densities were used successfully as well. Cells were allowed to incubate in growth media for 24 hours to allow for maximum adhesion. Treatment with the test agent began on Day 1 and continued for 72 hours either with or without retreatment. At the 72 hour time point, viable cell numbers are quantified by the CellTiter-Glo® cell viability assay as described above, or using standard MTT, SRB or BrDU assays. Experiments were repeated at least twice with the same concentrations to determine growth inhibitory activity.
(§3) Data Collection—For the cell proliferation studies, data from each experiment was collected and expressed as % Cell Growth using the following calculation: % Cell Growth=(ftest/fvehicle)×100 Where ftest is the luminescent signal of the tested sample, and fvehicle is the luminescence of the vehicle in which the drug is dissolved (or appropriate measure for the other viability/proliferation measures). […]

[2] = system: H292 non small cell lung cancer; assay: Cancer cell proliferation, H292; assay type: cell-based; details: for IC50: Homo sapiens
Protocol: as §1, §2
as §3, with “measures). Dose response graphs and IC50 values were generated using standard software using the following variable slope equation:” for “measures).”

RXF-393 renal = assay: Cancer cell proliferation, RXF-393; assay type: cell-based, human; details: for IC50: Homo sapiens
Protocol: as §1, §2
as §3, with “measures). Dose response graphs and IC50 values were generated using standard software using the following variable slope equation:” for “measures).”

Y79 retinoblastoma cells [3] = assay: Cancer cell proliferation, Y79; assay type: cell-based
Protocol: as §1, §2
as §3, with “measures). Dose response graphs and IC50 values were generated using standard software using the following variable slope equation:” for “measures).”

Y79 retinoblastoma cells [4] = assay: Y79 retinoblastoma cells seeded on cultured retinal explants (ex vivo); assay type: cell-based
Protocol: Retinal explants were surgically dissected and cultured by standard methods. One hundred thousand Y79 retinoblastoma cells were then seeded onto the retinas in culture and allowed to grow for 2 weeks on inserts in the presence or absence of 5 μM M6. Y79 cells were fluorescently labeled and intensity was counted (arbitrary fluorescence units). […] TRPM7 inhibitors may be useful in the reduction of tumor metastasis in addition to either reducing the proliferation or killing of cancer cells. FIG. 78 is a repetition of the experiment, observing the distribution of Y79 cells after 12 days of migration off the retina. The darker bars of each pair indicate fluorescence intensity of cells that have migrated off the retina.

DMS456 lung cancer = assay: Cancer cell proliferation, DMS456; assay type: cell-based; details: >20% inhibition at 48-96 hours, MTT, SRB, luminescence or BrDU
Protocol: as §1, §2, §3

in vivo = details: mouse, mice, highest dose tested, read-out: maximum tolerated dose
[5] = system: HeLa cervical cancer cells; assay: Cancer cell proliferation, HeLa; assay type: cell-based, human; details: FIG. 79
Protocol: as §1, §2, §3

HCT-116 colon cancer = assay: Cancer cell proliferation, HCT-116; assay type: cell-based; details: for IC50: Homo sapiens
Protocol: as §1, §2
as §3, with “measures). Dose response graphs and IC50 values were generated using standard software using the following variable slope equation:” for “measures).”

TRPC2 = molecular target: T1, TRPC2 (Mus musculus, UniProt Q9R244); assay: Agonist-induced Ca2+ changes in HEK293 cells transfected with TRPC2; assay type: cell-based
T1 construct: expressed in transfected cells; host or cells: HEK293
T1 sequence (Q9R244 whole entry, species assumed): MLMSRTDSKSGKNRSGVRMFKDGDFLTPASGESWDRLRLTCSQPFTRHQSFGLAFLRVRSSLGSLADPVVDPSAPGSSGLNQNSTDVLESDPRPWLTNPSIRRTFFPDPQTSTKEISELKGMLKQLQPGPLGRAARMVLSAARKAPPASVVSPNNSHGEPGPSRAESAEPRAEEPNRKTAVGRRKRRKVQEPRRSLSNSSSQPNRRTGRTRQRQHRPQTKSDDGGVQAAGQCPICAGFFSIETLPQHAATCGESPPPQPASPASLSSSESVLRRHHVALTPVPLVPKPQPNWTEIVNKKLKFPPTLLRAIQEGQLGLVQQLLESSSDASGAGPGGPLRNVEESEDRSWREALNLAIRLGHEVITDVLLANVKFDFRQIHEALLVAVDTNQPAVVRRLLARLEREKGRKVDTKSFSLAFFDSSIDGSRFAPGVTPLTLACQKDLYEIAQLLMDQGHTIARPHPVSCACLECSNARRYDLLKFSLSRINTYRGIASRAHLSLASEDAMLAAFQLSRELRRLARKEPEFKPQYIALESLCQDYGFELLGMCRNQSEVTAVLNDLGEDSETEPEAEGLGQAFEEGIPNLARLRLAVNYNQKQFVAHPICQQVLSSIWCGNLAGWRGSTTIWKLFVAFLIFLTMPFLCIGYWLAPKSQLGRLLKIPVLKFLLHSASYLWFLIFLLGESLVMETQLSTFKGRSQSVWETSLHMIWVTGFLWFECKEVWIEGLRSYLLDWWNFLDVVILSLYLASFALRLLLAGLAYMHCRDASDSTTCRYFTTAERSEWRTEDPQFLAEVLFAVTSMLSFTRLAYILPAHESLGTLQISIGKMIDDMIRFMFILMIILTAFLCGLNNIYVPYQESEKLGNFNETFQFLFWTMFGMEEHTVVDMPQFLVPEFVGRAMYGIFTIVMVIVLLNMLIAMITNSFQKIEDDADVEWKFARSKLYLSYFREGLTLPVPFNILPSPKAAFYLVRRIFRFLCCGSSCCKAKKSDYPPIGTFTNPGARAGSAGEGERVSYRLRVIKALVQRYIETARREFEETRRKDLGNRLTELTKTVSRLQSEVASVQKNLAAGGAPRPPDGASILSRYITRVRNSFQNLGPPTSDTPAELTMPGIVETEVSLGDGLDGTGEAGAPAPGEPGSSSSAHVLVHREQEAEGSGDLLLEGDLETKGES
Protocol: (§4) To examine selectivity of a subset of these TRPM7 inhibitors, experiments were performed to determine whether TRPM7 antagonists cross-react with other ionic channels and receptors. […] From a therapeutic perspective, knowledge of cross-reactivity of candidate drugs could shed light on other ischemic mechanisms and raise awareness of potential side effects. M21 has no effect on voltage-sensitive Na+, and Ca2+ currents in cultured cortical neurons […] TRPM7-expressing HEK293 cells, but inhibits K+ currents by about 20% at membrane potentials of −10 mV. M21 had no effect on agonist-induced Ca2+ changes in HEK293 cells transfected with constructs for TRPM2, TRPM4, TRPM6, TRPV1, TRPC2 and TRPA1. M21 also has no effect on NMDA and AMPA receptor currents in cultured neurons. […] Similar experiments were performed with other TRPM7 inhibitors including M5 and M11.

AMPA receptor = AMPA receptor currents in cultured neurons; assay type: cell-based
Protocol: as §4

NMDA receptor = NMDA receptor currents in cultured neurons; assay type: cell-based
Protocol: as §4

TRPA1 = molecular target: T2, TRPA1 (Homo sapiens, UniProt O75762); assay: Agonist-induced Ca2+ changes in HEK293 cells transfected with TRPA1; assay type: cell-based
T2 construct: expressed in transfected cells; host or cells: HEK293
T2 sequence (O75762 whole entry, species assumed): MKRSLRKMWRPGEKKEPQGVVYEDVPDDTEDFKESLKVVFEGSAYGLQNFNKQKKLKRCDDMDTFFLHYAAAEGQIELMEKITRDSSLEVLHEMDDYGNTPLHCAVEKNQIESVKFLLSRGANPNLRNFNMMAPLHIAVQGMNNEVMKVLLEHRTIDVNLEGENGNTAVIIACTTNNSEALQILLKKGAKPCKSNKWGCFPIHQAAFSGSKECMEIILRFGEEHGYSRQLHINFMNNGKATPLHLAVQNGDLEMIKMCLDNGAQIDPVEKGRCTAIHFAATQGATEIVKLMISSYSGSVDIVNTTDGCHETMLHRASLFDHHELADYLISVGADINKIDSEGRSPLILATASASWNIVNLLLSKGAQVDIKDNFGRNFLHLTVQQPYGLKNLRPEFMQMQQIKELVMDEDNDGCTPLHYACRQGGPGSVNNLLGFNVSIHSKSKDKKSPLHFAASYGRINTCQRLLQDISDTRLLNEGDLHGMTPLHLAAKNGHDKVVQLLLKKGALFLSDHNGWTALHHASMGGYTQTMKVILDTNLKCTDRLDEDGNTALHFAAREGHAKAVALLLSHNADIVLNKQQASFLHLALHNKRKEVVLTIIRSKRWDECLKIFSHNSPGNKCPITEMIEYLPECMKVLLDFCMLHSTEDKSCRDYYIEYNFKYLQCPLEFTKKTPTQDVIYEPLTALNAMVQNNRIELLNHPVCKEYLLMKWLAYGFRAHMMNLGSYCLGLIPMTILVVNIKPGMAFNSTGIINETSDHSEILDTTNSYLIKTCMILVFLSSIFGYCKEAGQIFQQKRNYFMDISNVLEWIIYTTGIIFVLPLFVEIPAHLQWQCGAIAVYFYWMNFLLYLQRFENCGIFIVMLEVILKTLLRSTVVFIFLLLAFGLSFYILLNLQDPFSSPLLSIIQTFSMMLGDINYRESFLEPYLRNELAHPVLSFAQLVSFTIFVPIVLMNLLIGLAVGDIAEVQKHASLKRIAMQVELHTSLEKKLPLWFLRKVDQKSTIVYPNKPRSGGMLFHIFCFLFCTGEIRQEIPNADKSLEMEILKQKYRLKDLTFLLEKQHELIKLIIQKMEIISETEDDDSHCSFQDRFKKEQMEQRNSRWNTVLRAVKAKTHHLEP
Protocol: as §4

TRPM6 = molecular target: T3, TRPM6 (Homo sapiens, UniProt Q9BX84); assay: Agonist-induced Ca2+ changes in HEK293 cells transfected with TRPM6; assay type: cell-based
T3 construct: expressed in transfected cells; host or cells: HEK293
T3 sequence (Q9BX84 whole entry, species assumed): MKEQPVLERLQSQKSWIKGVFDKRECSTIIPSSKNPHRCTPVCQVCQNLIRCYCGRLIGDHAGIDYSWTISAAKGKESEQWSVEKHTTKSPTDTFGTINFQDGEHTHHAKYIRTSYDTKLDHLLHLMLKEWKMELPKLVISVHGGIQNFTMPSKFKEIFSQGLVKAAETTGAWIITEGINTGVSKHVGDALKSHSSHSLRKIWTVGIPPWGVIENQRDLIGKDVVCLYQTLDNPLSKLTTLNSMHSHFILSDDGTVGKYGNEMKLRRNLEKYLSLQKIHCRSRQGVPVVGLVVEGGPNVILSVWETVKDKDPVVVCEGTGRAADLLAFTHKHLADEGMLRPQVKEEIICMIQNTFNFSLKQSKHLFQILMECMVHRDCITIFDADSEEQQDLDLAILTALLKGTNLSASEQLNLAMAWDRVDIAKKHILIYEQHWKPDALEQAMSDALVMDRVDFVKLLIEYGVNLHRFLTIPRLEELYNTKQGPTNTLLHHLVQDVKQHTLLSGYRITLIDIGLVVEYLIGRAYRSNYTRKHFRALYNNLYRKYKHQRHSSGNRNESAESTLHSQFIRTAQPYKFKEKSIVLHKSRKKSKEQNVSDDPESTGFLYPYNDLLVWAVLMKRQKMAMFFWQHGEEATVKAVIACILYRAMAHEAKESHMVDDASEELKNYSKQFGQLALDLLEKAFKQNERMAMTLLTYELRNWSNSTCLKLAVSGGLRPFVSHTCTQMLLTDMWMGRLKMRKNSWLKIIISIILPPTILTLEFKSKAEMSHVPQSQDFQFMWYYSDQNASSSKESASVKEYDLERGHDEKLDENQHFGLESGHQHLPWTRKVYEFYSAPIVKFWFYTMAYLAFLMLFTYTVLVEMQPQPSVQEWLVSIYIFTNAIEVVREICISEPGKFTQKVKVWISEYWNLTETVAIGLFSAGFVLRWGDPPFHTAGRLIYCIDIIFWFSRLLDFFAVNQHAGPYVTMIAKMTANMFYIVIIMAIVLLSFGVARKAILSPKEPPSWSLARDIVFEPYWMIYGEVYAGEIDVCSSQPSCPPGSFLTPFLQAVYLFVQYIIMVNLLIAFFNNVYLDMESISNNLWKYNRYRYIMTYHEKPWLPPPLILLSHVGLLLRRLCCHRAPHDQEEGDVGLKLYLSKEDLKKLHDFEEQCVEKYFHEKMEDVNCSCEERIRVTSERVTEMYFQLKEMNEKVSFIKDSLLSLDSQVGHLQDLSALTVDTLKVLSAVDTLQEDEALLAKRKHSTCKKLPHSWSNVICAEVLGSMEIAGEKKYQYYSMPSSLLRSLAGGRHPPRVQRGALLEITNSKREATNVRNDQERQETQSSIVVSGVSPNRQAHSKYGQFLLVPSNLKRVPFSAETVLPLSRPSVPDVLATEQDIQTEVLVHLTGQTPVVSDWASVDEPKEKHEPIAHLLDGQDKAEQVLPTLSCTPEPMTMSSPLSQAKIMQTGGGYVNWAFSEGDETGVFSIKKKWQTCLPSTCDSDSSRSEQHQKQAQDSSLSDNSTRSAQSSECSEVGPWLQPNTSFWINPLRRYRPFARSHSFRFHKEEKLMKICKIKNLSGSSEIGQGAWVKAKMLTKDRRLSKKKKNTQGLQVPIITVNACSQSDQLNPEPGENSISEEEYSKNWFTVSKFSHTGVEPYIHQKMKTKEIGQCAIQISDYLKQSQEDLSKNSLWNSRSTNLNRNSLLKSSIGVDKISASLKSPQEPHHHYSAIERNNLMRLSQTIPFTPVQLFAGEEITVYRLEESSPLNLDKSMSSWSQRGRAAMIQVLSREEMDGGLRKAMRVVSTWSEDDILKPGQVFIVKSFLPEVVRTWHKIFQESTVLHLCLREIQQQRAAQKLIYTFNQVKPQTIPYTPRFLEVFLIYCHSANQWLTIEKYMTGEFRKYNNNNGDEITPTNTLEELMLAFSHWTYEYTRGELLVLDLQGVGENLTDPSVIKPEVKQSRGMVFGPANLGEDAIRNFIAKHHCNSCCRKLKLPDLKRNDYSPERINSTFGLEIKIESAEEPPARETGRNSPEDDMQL
Protocol: as §4

[6] = system: formalin-induced pain behaviors; assay: Formalin induced inflammatory pain in rats; assay type: in vivo, rat; details: i.v. administration, formalin 2.5% 50 μL plantar hindpaw
TRPV1 = molecular target: T4, TRPV1 (Homo sapiens, UniProt Q8NER1); assay: Agonist-induced Ca2+ changes in HEK293 cells transfected with TRPV1; assay type: cell-based
T4 construct: expressed in transfected cells; host or cells: HEK293
T4 sequence (Q8NER1 whole entry, species assumed): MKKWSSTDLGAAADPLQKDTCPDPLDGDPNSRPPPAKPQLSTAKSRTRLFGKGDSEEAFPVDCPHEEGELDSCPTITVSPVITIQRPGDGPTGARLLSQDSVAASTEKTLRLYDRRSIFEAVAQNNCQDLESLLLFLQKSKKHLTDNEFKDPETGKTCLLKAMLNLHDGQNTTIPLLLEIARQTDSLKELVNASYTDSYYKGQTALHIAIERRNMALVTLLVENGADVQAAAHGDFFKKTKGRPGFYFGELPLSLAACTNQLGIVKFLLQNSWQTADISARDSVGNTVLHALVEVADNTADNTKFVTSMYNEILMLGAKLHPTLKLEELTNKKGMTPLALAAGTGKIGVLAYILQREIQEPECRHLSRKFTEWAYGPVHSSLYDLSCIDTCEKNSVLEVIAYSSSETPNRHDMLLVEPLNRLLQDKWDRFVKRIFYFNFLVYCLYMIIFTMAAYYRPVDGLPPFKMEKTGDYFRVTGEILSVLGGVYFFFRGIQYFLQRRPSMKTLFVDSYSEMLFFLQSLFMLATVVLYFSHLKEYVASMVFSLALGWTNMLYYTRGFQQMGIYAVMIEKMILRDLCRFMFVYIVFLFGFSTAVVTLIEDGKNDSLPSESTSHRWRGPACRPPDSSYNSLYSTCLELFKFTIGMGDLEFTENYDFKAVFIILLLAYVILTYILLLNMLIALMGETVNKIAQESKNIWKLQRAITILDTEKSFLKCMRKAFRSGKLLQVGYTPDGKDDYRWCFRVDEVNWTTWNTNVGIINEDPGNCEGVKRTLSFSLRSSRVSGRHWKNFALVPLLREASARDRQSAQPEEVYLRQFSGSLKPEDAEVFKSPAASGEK
Protocol: as §4

[7] = system: LAD coronary artery ligation; assay: Mouse model of permanent LAD coronary artery ligation (myocardial infarction); assay type: in vivo; details: single intravenous dose within 15 minutes of LAD occlusion
[8] = system: raised intraocular pressure (IOP); assay: Raised intraocular pressure model of acute glaucoma in rats; assay type: in vivo, rat; details: intraocular injection, 80 mm Hg 1 hour, 7-14 days
Protocol: We next tested whether direct intraocular injection of M21 could reduce retinal damage evoked by raising the intraocular pressure (IOP) in rats (80 mm Hg 1 hour; Morrison J C. Elevated intraocular pressure and optic nerve injury models in the rat. J Glaucoma. 2005; 14:315-317). M21 was microinjected into the vitreous humor directly, to control for any blood-brain-barrier penetration issues. […] The compounds of this invention can be used for the treatment of retinal disorders. Preferably these compounds are delivered orally, as an injection (intravenous, intraocular), or administered topically. This model of glaucoma can be used to assess the different routes of administration for these compounds

COc1cc2c(cc1OC)C(c1sc3ccccc3c1Cl)=NCC2 [Compound M6]
proliferation (BrDU incorporation) [1]: significantly reduce proliferation
Demonstrated Reduction of Proliferation at or below 10 μM Inhibitor concentration ([2]; H292, >20% inhibition at 48-96 hours, MTT, SRB, luminescence or BrDU): H292 non small cell lung cancer
IC50 ([2]; NCI-H292, 72 h, H292, Exp 1, 72 hours, read-out: IC50): 18.5 µM
IC50 ([2]; NCI-H292, 72 h, H292, Exp 2, 72 hours, read-out: IC50): 15.9 µM
IC50 ([2]; NCI-H292, H292, mean of Exp 1 and Exp 2, read-out: Mean IC50): 17.2 µM
IC50 (RXF-393 renal; RXF 393, 72 h, RXF393, Exp 1, 72 hours, read-out: IC50): 5.3 µM
IC50 (RXF-393 renal; RXF 393, 72 h, RXF393, Exp 2, 72 hours, read-out: IC50): 8.1 µM
IC50 (RXF-393 renal; RXF 393, RXF393, mean of Exp 1 and Exp 2, read-out: Mean IC50): 6.7 µM
Demonstrated Reduction of Proliferation at or below 10 μM Inhibitor concentration (RXF-393 renal; RXF-393, >20% inhibition at 48-96 hours, MTT, SRB, luminescence or BrDU): RXF-393 renal
IC50 (Y79 retinoblastoma cells [3]; 72 h, Y79, Exp 1, 72 hours, read-out: IC50): 36.3 µM
IC50 (Y79 retinoblastoma cells [3]; 72 h, Y79, Exp 2, 72 hours, read-out: IC50): 38.6 µM
death of cancer cells by MTT assay (Y79 retinoblastoma cells [3]; Y79, 1-7.5 μM, 48-72 hours): resulted in the death of the cancer cells
IC50 (Y79 retinoblastoma cells [3]; Y79, mean of Exp 1 and Exp 2, read-out: Mean IC50): 37.5 µM
fluorescence of cells migrated off the retinal explant (Y79 retinoblastoma cells [4]; 1 μM, 12 days, FIG. 78): significantly lower Y79 fluorescence off of the retinal explant
amount of Y79 cells on cultured retinas (fluorescence) (Y79 retinoblastoma cells [4]; 5 μM, 2 weeks): reduce the amount of Y79 cells
ability of Y79 cells to migrate off of the retina (Y79 retinoblastoma cells [4]; 5 μM, 2 weeks, FIG. 77 panel B): significantly reduced the ability of Y79 cells to migrate off of the retina
Demonstrated Reduction of Proliferation at or below 10 μM Inhibitor concentration (DMS456 lung cancer): DMS456 lung cancer
MTD (in vivo): ≥ 20 mg/kg
proliferation (BrDU incorporation) [5]: significantly reduce proliferation
Demonstrated Reduction of Proliferation at or below 10 μM Inhibitor concentration (HCT-116 colon cancer; HCT-116, >20% inhibition at 48-96 hours, MTT, SRB, luminescence or BrDU): HCT-116
IC50 (HCT-116 colon cancer; HCT-116, 72 h, HCT-116, Exp 1, 72 hours, read-out: IC50): 14.7 µM
IC50 (HCT-116 colon cancer; HCT-116, 72 h, HCT-116, Exp 2, 72 hours, read-out: IC50): 17.2 µM
IC50 (HCT-116 colon cancer; HCT-116, HCT-116, mean of Exp 1 and Exp 2, read-out: Mean IC50): 16 µM

Cc1c(Cc2ccc(Cl)c(Cl)c2)c(=O)oc2cc(O)ccc12 [Compound M21]
effect on agonist-induced Ca2+ changes (TRPC2): no effect
effect on AMPA receptor currents (AMPA receptor): no effect
effect on NMDA receptor currents (NMDA receptor): no effect
effect on agonist-induced Ca2+ changes (TRPA1): no effect
effect on agonist-induced Ca2+ changes (TRPM6): no effect
formalin-induced phase 1 (0-8 min) flinches [6]: little effect
formalin-induced phase 2 pain (9-60 min) flinches [6]: significantly reduced
effect on agonist-induced Ca2+ changes (TRPV1): no effect
number of cells exhibiting DNA fragmentation (TUNEL) [7]: significantly reduced the number of cells exhibiting DNA fragmentation
infarct volume (TTC) ([7]; 24 h): significantly reduced infarct volume
retinal damage (histology) [8]: significant reduction in retinal damage
